Data from paper PMC10337138 (Acta Neuropathologica Communications, 2023).

Legend:
Settings in all cases: 1 mM ATP; inhibitor
EPHB4 = EPHB4 (Homo sapiens, UniProt P54760)
Method: (§1) Kinase selectivity panel Kinome profiling was conducted by AssayQuant Technologies (Marlboro, MA) using Sox chromophore technology and Sox-based peptide substrates developed for human kinases in a 384-well format. Compounds were tested at 1 µM in the presence of 1 mM ATP.

JAK2(JH1JH2) = JAK2(JH1JH2) (Homo sapiens, UniProt O60674)
Method: as §1

AKT1 = AKT1 (Homo sapiens, UniProt P31749)
Method: as §1

PDHK2 = target: T1, PDHK2 (Homo sapiens, UniProt Q15119)
T1 construct: gene PDK2
Method: as §1

SIK2 = SIK2 (Homo sapiens, UniProt Q9H0K1)
Method: as §1

PIM1 = PIM1 (Homo sapiens, UniProt P11309)
Method: as §1

MAPK9/JNK2 = MAPK9/JNK2 (Homo sapiens, UniProt P45984)
Method: as §1

LATS2 = LATS2 (Homo sapiens, UniProt Q9NRM7)
Method: as §1

TSSK2 = TSSK2 (Homo sapiens, UniProt Q96PF2)
Method: as §1

DAPK3 = DAPK3 (Homo sapiens, UniProt O43293)
Method: as §1

TESK2 = TESK2 (Homo sapiens, UniProt Q96S53)
Method: as §1

TOPK = target: T2, TOPK (Homo sapiens, UniProt Q96KB5)
T2 construct: gene PBK
Method: as §1

DDR1 = DDR1 (Homo sapiens, UniProt Q08345)
Method: as §1

TYRO3 = TYRO3 (Homo sapiens, UniProt Q06418)
Method: as §1

ROCK2 = ROCK2 (Homo sapiens, UniProt O75116)
Method: as §1

GRK6 = GRK6 (Homo sapiens, UniProt P43250)
Method: as §1

DDR2 = DDR2 (Homo sapiens, UniProt Q16832)
Method: as §1

MAPK14/P38A = MAPK14/P38A (Homo sapiens, UniProt Q16539)
Method: as §1

NEK3 = NEK3 (Homo sapiens, UniProt P51956)
Method: as §1

GRK4 = GRK4 (Homo sapiens, UniProt P32298)
Method: as §1

RPS6KA3/RSK2 = RPS6KA3/RSK2 (Homo sapiens, UniProt P51812)
Method: as §1

NEK6 = NEK6 (Homo sapiens, UniProt Q9HC98)
Method: as §1

ERN1 = ERN1 (Homo sapiens, UniProt O75460)
Method: as §1

MLK4 = target: T3, MLK4 (Homo sapiens, UniProt Q5TCX8)
T3 construct: gene MAP3K21
Method: as §1

MINK1 = MINK1 (Homo sapiens, UniProt Q8N4C8)
Method: as §1

NUAK1 = NUAK1 (Homo sapiens, UniProt O60285)
Method: as §1

PHKG2 = PHKG2 (Homo sapiens, UniProt P15735)
Method: as §1

PAK2 = PAK2 (Homo sapiens, UniProt Q13177)
Method: as §1

CDK2/A2 = CDK2/A2 (Homo sapiens, UniProt P24941)
Method: as §1

STK4/MST1 = STK4/MST1 (Homo sapiens, UniProt Q13043)
Method: as §1

SRMS = SRMS (Homo sapiens, UniProt Q9H3Y6)
Method: as §1

PRKX = PRKX (Homo sapiens, UniProt P51817)
Method: as §1

TESK2, sequence (Q96S53 whole entry): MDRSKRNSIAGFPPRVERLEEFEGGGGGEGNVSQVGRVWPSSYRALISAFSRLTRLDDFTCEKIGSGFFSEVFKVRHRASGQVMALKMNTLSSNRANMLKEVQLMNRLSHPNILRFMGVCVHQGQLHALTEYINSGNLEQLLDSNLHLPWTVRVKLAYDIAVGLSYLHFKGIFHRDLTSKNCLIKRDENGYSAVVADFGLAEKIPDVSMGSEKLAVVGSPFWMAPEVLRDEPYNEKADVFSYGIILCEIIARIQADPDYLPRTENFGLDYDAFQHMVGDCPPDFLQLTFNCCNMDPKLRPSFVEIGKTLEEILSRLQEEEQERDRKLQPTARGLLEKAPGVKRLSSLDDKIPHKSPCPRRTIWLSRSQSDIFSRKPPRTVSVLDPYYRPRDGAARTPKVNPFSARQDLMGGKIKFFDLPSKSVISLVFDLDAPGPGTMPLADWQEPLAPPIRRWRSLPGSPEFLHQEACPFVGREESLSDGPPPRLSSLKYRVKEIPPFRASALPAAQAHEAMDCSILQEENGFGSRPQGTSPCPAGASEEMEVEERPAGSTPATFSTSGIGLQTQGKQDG
SRMS, sequence (Q9H3Y6 whole entry): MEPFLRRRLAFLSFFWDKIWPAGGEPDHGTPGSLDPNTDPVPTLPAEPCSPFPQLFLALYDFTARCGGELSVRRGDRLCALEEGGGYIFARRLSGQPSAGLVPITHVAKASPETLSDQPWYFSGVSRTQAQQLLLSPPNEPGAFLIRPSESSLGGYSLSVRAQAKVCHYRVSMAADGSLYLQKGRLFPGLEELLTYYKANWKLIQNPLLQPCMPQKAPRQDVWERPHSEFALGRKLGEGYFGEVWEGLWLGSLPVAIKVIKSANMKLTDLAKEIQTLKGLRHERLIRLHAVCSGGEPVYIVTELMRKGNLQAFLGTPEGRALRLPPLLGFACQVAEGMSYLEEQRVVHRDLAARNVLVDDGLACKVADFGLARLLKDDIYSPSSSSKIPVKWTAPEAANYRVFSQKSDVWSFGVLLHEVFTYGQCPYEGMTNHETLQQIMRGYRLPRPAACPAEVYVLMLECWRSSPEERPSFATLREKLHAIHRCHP
TSSK2, sequence (Q96PF2 whole entry): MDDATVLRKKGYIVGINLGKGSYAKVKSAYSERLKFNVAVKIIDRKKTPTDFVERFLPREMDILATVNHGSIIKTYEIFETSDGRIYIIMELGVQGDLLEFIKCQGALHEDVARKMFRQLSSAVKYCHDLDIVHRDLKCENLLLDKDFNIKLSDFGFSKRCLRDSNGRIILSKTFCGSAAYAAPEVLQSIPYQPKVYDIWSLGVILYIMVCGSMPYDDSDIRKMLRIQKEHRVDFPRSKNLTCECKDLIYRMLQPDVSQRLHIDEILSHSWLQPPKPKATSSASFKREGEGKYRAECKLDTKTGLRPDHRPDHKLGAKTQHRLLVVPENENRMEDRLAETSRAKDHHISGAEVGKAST
NEK6, sequence (Q9HC98 whole entry): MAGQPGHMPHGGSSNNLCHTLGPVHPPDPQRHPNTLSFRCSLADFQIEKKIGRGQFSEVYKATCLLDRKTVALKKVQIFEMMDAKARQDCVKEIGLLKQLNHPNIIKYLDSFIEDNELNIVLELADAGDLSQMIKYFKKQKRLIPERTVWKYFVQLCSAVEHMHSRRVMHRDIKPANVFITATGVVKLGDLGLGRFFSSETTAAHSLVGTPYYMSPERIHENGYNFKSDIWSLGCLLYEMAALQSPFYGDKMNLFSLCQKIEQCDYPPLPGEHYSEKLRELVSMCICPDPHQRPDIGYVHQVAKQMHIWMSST
MINK1, sequence (Q8N4C8 whole entry): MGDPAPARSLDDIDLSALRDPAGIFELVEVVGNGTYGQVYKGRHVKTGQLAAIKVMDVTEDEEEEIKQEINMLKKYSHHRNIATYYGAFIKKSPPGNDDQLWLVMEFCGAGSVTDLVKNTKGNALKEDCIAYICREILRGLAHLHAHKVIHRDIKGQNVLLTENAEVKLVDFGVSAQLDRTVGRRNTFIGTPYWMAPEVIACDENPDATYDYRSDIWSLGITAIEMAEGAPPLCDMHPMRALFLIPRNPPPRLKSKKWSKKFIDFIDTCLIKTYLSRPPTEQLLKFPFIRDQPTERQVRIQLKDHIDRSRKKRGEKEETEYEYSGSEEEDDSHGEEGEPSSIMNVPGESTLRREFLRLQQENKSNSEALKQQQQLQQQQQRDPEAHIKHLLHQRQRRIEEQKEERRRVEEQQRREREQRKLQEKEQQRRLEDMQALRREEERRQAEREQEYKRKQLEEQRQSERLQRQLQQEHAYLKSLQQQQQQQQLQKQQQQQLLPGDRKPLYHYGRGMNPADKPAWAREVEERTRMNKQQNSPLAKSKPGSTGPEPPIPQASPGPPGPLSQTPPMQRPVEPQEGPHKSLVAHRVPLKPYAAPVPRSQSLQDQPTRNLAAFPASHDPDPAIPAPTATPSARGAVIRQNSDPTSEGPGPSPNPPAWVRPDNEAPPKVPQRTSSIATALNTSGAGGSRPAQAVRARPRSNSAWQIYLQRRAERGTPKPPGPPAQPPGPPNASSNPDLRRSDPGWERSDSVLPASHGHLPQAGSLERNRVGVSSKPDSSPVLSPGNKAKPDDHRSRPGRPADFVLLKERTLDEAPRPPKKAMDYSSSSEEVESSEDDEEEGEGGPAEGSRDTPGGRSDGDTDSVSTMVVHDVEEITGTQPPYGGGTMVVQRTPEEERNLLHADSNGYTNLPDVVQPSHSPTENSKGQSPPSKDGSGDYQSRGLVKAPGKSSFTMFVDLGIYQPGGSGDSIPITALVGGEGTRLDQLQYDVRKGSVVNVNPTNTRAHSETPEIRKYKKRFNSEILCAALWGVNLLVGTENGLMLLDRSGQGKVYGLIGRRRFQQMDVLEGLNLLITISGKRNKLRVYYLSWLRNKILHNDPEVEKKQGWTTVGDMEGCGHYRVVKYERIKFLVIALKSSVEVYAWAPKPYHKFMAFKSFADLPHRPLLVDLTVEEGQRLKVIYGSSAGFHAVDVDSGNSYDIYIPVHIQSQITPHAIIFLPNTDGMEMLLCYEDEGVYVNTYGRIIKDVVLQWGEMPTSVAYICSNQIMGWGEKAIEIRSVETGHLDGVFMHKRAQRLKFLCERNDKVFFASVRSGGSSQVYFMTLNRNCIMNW
JAK2(JH1JH2), sequence (O60674 whole entry): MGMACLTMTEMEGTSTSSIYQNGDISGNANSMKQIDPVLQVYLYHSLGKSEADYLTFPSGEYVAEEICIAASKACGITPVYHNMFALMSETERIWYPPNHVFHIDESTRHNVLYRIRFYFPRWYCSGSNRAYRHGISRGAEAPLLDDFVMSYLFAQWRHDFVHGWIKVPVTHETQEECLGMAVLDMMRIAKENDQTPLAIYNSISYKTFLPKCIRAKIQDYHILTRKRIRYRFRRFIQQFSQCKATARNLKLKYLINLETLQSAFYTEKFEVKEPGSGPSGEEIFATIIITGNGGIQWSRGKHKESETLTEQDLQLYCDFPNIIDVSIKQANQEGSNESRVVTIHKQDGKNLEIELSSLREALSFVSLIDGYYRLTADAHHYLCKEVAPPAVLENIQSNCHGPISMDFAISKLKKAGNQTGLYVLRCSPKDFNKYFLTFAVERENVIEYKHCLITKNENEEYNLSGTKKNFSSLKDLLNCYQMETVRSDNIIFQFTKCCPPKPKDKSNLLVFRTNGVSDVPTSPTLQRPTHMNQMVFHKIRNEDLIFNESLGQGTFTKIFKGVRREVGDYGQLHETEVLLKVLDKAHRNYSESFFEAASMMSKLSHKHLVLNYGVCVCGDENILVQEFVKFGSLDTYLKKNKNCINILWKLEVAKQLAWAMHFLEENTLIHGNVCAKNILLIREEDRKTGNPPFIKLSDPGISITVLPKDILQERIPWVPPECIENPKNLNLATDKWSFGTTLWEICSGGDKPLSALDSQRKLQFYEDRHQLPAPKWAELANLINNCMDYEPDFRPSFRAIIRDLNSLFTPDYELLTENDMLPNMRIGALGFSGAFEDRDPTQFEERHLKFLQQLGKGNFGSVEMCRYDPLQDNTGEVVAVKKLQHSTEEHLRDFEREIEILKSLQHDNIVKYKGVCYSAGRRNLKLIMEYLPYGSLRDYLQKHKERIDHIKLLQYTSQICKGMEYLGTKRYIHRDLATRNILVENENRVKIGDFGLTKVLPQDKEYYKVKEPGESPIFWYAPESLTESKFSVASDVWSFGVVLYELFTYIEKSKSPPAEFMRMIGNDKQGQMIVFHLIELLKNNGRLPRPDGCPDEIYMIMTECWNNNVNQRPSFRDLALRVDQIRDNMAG
GRK6, sequence (P43250 whole entry): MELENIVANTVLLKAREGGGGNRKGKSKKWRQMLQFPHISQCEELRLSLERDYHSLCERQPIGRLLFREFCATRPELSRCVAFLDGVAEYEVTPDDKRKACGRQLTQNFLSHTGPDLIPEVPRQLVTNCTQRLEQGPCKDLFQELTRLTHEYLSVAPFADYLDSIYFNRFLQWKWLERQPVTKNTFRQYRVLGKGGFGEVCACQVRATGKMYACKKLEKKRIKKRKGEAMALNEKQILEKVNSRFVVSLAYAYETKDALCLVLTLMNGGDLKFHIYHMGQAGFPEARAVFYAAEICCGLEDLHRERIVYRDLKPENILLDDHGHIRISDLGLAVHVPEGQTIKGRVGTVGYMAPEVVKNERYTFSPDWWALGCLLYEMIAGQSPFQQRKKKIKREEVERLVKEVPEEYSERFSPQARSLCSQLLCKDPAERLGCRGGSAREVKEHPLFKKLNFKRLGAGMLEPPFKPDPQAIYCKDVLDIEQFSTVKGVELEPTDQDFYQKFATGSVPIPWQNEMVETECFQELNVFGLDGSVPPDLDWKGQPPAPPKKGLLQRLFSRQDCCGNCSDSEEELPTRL

**Q.** For `C=CC(=O)N1CCC[C@@H](n2nc(-c3ccc(Oc4ccccc4)cc3)c3c(N)ncnc32)C1` [Ibrutinib], which “1 µM GBD00276 (ibrutinib), % inhibition” value (EPHB4) is on record?
**A.** 10.75%

**Q.** And the “1 µM GBD00276 (ibrutinib), % inhibition” value (JAK2(JH1JH2))?
**A.** 14.99%

**Q.** What about the “1 µM GBD00276 (ibrutinib), % inhibition” value (AKT1) of the same compound?
**A.** 16.85%

**Q.** What about the “1 µM GBD00276 (ibrutinib), % inhibition” value (PDHK2) of the same compound?
**A.** 7.038%

**Q.** What about the “1 µM GBD00276 (ibrutinib), % inhibition” value (SIK2) of the same compound?
**A.** -7.577%

**Q.** And the “1 µM GBD00276 (ibrutinib), % inhibition” value (PIM1)?
**A.** 0.08032%

**Q.** And the “1 µM GBD00276 (ibrutinib), % inhibition” value (MAPK9/JNK2)?
**A.** -5.789%

**Q.** And the “1 µM GBD00276 (ibrutinib), % inhibition” value (LATS2)?
**A.** 10.92%

**Q.** And the “1 µM GBD00276 (ibrutinib), % inhibition” value (TSSK2)?
**A.** 9.261%

**Q.** And the “1 µM GBD00276 (ibrutinib), % inhibition” value (DAPK3)?
**A.** -3.598%

**Q.** What about the “1 µM GBD00276 (ibrutinib), % inhibition” value (TESK2) of the same compound?
**A.** 8.621%

**Q.** And the “1 µM GBD00276 (ibrutinib), % inhibition” value (TOPK)?
**A.** -5.913%

**Q.** And the “1 µM GBD00276 (ibrutinib), % inhibition” value (DDR1)?
**A.** 24.25%

**Q.** What about the “1 µM GBD00276 (ibrutinib), % inhibition” value (TYRO3) of the same compound?
**A.** 3.401%

**Q.** And the “1 µM GBD00276 (ibrutinib), % inhibition” value (ROCK2)?
**A.** 8.461%

**Q.** What about the “1 µM GBD00276 (ibrutinib), % inhibition” value (GRK6) of the same compound?
**A.** -23.1%

**Q.** And the “1 µM GBD00276 (ibrutinib), % inhibition” value (DDR2)?
**A.** 20.22%

**Q.** What about the “1 µM GBD00276 (ibrutinib), % inhibition” value (MAPK14/P38A) of the same compound?
**A.** 4.135%

**Q.** What about the “1 µM GBD00276 (ibrutinib), % inhibition” value (NEK3) of the same compound?
**A.** -16.35%

**Q.** What about the “1 µM GBD00276 (ibrutinib), % inhibition” value (GRK4) of the same compound?
**A.** 18.83%

**Q.** What about the “1 µM GBD00276 (ibrutinib), % inhibition” value (RPS6KA3/RSK2) of the same compound?
**A.** 28.78%

**Q.** And the “1 µM GBD00276 (ibrutinib), % inhibition” value (NEK6)?
**A.** -7.047%

**Q.** What about the “1 µM GBD00276 (ibrutinib), % inhibition” value (ERN1) of the same compound?
**A.** 1.571%

**Q.** And the “1 µM GBD00276 (ibrutinib), % inhibition” value (MLK4)?
**A.** 4.614%

**Q.** What about the “1 µM GBD00276 (ibrutinib), % inhibition” value (MINK1) of the same compound?
**A.** 7.641%

**Q.** What about the “1 µM GBD00276 (ibrutinib), % inhibition” value (NUAK1) of the same compound?
**A.** -1.079%

**Q.** And the “1 µM GBD00276 (ibrutinib), % inhibition” value (PHKG2)?
**A.** 1.522%

**Q.** What about the “1 µM GBD00276 (ibrutinib), % inhibition” value (PAK2) of the same compound?
**A.** 28.3%

**Q.** What about the “1 µM GBD00276 (ibrutinib), % inhibition” value (CDK2/A2) of the same compound?
**A.** -9.861%

**Q.** What about the “1 µM GBD00276 (ibrutinib), % inhibition” value (STK4/MST1) of the same compound?
**A.** -13.54%

**Q.** What about the “1 µM GBD00276 (ibrutinib), % inhibition” value (SRMS) of the same compound?
**A.** 81.42%

**Q.** What about the “1 µM GBD00276 (ibrutinib), % inhibition” value (PRKX) of the same compound?
**A.** 11.47%
